For 58 sequences, remaining target (mRNA or protein) (fraction of control) results are on record in the OligoGym collection.

These antisense oligonucleotides have a phosphorothioate backbone; sugars and methylation of C are not fully specified.

Holding throughout (conditions): ASO
For data set [1], the target named is TERF1.
The target of data set [2] is PTPN6.
The target in data set [3] is RHOB.
Also: test concentration or dose not given here.

GAAACCCCGCCTCTACTAAA: the remaining target (mRNA or protein) (fraction of control) in data set [1] was 0.74.
On to GACAGCATCTCTCTGTAGGG, for which the remaining target (mRNA or protein) (fraction of control) in data set [2] was found to be 0.78.
In turn, GACATCAAGATGATCATAGT returned a remaining target (mRNA or protein) (fraction of control) in data set [1] of at least 1.
Sequence GACATGCTCGTCGCTGCG yielded a remaining target (mRNA or protein) (fraction of control) in data set [3] of at least 1.
For GACCCCATGGTCGGGCCAGC, the remaining target (mRNA or protein) (fraction of control) in data set [2] was at least 1.
Still for that read-out and setting: next, GAGGACAGCACCGCTCACTT: 0.88.
For GAGGTTCAGTGAGCTGAAAT, the remaining target (mRNA or protein) (fraction of control) in data set [1] came out at 0.81.
In turn, GAGTCCGGGCTGTCCACC registered a remaining target (mRNA or protein) (fraction of control) in data set [3] of at least 1.
Sequence GATGAACTTGTACTGCGCCT registered a remaining target (mRNA or protein) (fraction of control) in data set [2] of 0.84.
In data set [3], GATGCAGCCGTTCTGGGA yielded a remaining target (mRNA or protein) (fraction of control) of at least 1.
For the sequence GATGTCAATGTCACAGTCCA, in data set [2], the remaining target (mRNA or protein) (fraction of control) came out at 0.73.
Regarding GCACGTCTTGCCACACGC, the remaining target (mRNA or protein) (fraction of control) in data set [3] was at least 1.
As to GCAGGGTTCAACAAATTTAC, the remaining target (mRNA or protein) (fraction of control) in data set [1] is 0.75.
Consider GCATCTCTCTGTAGGGAGGG, for which, in data set [2], the remaining target (mRNA or protein) (fraction of control) amounted to 0.96.
On the same count and under the same terms, next, GCCACGCCATCTGCCAGAAG: 0.7.
The sequence GCCAGGTGAGGAAGAACCGC came in with a remaining target (mRNA or protein) (fraction of control) in data set [2] of at least 1.
GCCATGTTAAATGGCTCGAT registered a remaining target (mRNA or protein) (fraction of control) in data set [1] of 0.61.
On the same count and under the same terms, the figure for GCCATTTTCCATACAAACAG is 0.81.
Sequence GCCGTCTCGAAGACCTCG showed a remaining target (mRNA or protein) (fraction of control) in data set [3] of at least 1.
GCCGTTCTGGGAGCCGTA gave a remaining target (mRNA or protein) (fraction of control) in data set [3] of at least 1.
On to GCCTGGGCCAGCCTTGGGCT, for which the remaining target (mRNA or protein) (fraction of control) in data set [2] is at least 1.
Turning to GCGCCTGAGGCCTCCTCAAT, the remaining target (mRNA or protein) (fraction of control) in data set [2] was 0.84.
GCTTTTACAAACACAATCAG registered a remaining target (mRNA or protein) (fraction of control) in data set [1] of 0.73.
Still for that read-out and setting: the figure for GGCAGGTTTGTTAGCTGAGT is at least 1.
GGCCTGGCTGGGCTATATAC displayed a remaining target (mRNA or protein) (fraction of control) in data set [2] of at least 1.
For GGCTGACTCTTTGAAACAGG, the remaining target (mRNA or protein) (fraction of control) in data set [1] was 0.6.
Regarding GGGACAGCATCTCTCTGTAG, the remaining target (mRNA or protein) (fraction of control) in data set [2] is at least 1.
In turn, GGGAGAATGTTCTTGTAGCG registered a remaining target (mRNA or protein) (fraction of control) in data set [2] of at least 1.
GGGATGTTCTCCAGCGAG gave a remaining target (mRNA or protein) (fraction of control) in data set [3] of 0.67.
Sequence GGGTTACGTTACAGGGTTGA gave a remaining target (mRNA or protein) (fraction of control) in data set [1] of at least 1.
Turning to GTAGTCGTAGGCTTGGAT, in data set [3], the remaining target (mRNA or protein) (fraction of control) came to 0.71.
With GTCCTTACTGAACACGAT, the remaining target (mRNA or protein) (fraction of control) in data set [3] is 0.95.
With GTCTTGGCAGAGCACTCG, the remaining target (mRNA or protein) (fraction of control) in data set [3] came to 0.8.
Consider GTGCAGGTTCTCATACACAT, for which the remaining target (mRNA or protein) (fraction of control) in data set [2] was determined as 0.64.
On to GTTCCTGCTTCATGCGGG, for which the remaining target (mRNA or protein) (fraction of control) in data set [3] stood at 0.73.
Same read-out and setting: next, GTTCTGGGAGCCGTAGCG: 0.64; GTTGATGCAGCCGTTCTG: 0.93.
TAAGAAAAGATTCTTGTGAG had a remaining target (mRNA or protein) (fraction of control) in data set [1] of 0.71.
As for TAGGCATCAGGTTATAAAGA, in data set [1], the remaining target (mRNA or protein) (fraction of control) came to 0.73.
In data set [2], TCAGAGTCGCAAACTTCTCC yielded a remaining target (mRNA or protein) (fraction of control) of at least 1.
On the same count and under the same terms, the figure for TCAGCCGCATTCACCCTCGT is 0.54.
On to TCAGTCTTCGCTGTCTGAGG, for which the remaining target (mRNA or protein) (fraction of control) in data set [1] turned out to be 0.46.
In turn, TCATGCTCCCCGCAGTTGGT registered a remaining target (mRNA or protein) (fraction of control) in data set [2] of 0.4.
TCGGCCACATAGTTCTCG: the remaining target (mRNA or protein) (fraction of control) in data set [3] was found to be 0.87.
Take TCTCATCAGGGCCTAGCAGC: the remaining target (mRNA or protein) (fraction of control) in data set [2] was determined as 0.74.
Sequence TCTGCTCCTCAGTAGGGTCG yielded a remaining target (mRNA or protein) (fraction of control) in data set [1] of 0.68.
In data set [2], TGAGTCTGTCCATCGCGAAA showed a remaining target (mRNA or protein) (fraction of control) of 0.63.
Turning to TGCCGGCGCTGCAGTGCACG, the remaining target (mRNA or protein) (fraction of control) in data set [2] was determined as 0.85.
On to TGGTGCCGTCGCGGTCCTGC, for which the remaining target (mRNA or protein) (fraction of control) in data set [2] turned out to be 0.29.
With TTAAACACTGGAACAAAAGT, the remaining target (mRNA or protein) (fraction of control) in data set [1] was at least 1.
As to TTAACTCTGGTAGCACAAAC, the remaining target (mRNA or protein) (fraction of control) in data set [1] amounted to 0.59.
As for TTACAAACACAATCAGTCTT, the remaining target (mRNA or protein) (fraction of control) in data set [1] came to 0.77.
In data set [1], TTACTCTGTACATTTATCAT had a remaining target (mRNA or protein) (fraction of control) of at least 1.
With TTCAGTGATCCCAGGGCTTT, the remaining target (mRNA or protein) (fraction of control) in data set [2] was 0.75.
For the sequence TTTAGACCAGTTTCCCTCTC, the remaining target (mRNA or protein) (fraction of control) in data set [1] was 0.68.
In the case of TTTAGGCAGGACGCAGTGGC, in data set [1], the remaining target (mRNA or protein) (fraction of control) was found to be 0.47.
In data set [1], TTTGTCCCATGGGTAATACT came in with a remaining target (mRNA or protein) (fraction of control) of 0.97.
The same measure, in the same setting: next, TTTTACAAACACAATCAGTC: 0.77.
